Laboratory results reported in patent US20210235704A9, “Combinations of Lipo-Chitooligosaccharides and Methods for Use in Enhancing Plant Growth” (NOVOZYMES BIOAG A/S, priority 2011, published 2021).

Tested on: Florida petite cherry tomato plants
Experiment: LCO foliar application on cherry tomato (greenhouse)
Assay type: in vivo
Settings: at the end of harvest, compared to control treatment; FIG. 11
Protocol: Based on the findings from the soybean LCO and the alfalfa LCO combination in Siratro (example 1), further investigation was conducted on tomato. Florida petite cherry tomato plants were grown from seeds in greenhouse plastic containers and sprayed with soy LCO or its combination with alfalfa LCO during the initiation of flower buds at 5 ml/plant application rate. A second spry was also applied one week after the first application. At different maturity, leaf greenness, flower number, fruit number and final fruit fresh weight were measured.

LCO-V(C18:1, MeFuc), MOR116 [soy LCO]
average fruit number per plant: significantly higher
